# Literature values in patent US20180243282A1, “Preparation and Use of Combination Enzyme and Gastrointestinal Modulator Delivery Systems” (Curemark, LLC, priority 2010, published 2018).
# Legend:
# [1] = acidic conditions in the stomach
# [2] = in vivo
# [3] = in vivo; remark: listed apart in the source
clearance by hemodialysis [3],excretion [2],Compound,protective coating lasts [1],systemic absorption [2],systemic toxicity [2]
,,sucralfate,up to 6 hours,lack of systemic absorption,no systemic toxicity
cleared by hemodialysis,,CN/C(=N/CCSCc1nc[nH]c1C)NC#N [cimetidine],,,
,excreted in the feces,Bismuth,,largely unabsorbed,
